As a reminder, the EC50 is the concentration giving half of the maximal effect.

Where two headings read alike, the source gives them in different places.

This note sets out measurements from patent US7214495B2, “Screening method” (Takeda Pharmaceutical Company Limited, priority 2002, dated 2007).

What all share (assay type): cell-based
The target in one assay is T1, human-derived GPR40 (Homo sapiens, UniProt O14842).
T1 construct: The DNA fragment encoding human GPR40 was acquired by the following PCR procedures; expressed in transfected cells; host or cells: CHO-K1 (transient, Lipofectamine)
T1 sequence (O14842 whole entry, the tested form may be a part): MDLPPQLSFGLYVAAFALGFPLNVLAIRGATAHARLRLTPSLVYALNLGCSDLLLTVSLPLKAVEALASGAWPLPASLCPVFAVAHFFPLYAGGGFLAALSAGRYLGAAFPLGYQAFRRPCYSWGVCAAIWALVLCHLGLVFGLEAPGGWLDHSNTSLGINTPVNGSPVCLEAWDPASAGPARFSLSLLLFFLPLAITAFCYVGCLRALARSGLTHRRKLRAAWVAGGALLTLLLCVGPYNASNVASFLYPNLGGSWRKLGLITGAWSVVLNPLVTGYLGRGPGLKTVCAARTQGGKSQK
Briefly: Intracellular calcium change (FLIPR) in CHO-K1 cells transiently expressing GPR40. Particulars: added in 10^−5 M to 10^−6 M; no response in vector-only control cells. As for the experimental part:
The CHO-K1 cell line was cultured in HAM F-12 medium (Invitrogen) containing 10% fetal calf serum (Invitrogen), unless otherwise indicated. One day before transfection, 4.5×10^5 cells per 10 cm^2 were plated, followed by incubation in a CO2 incubator adjusted to a concentration of 5% CO2 at 37° C. for at least 15 hours. Using Lipofectamine reagent (Invitrogen), transfection procedures were carried out by modifications of the method attached to the reagent. When a 6-well plate was used for the incubator, the following procedures were performed. First, 2 tubes each having a 1.5 ml volume were prepared and 100 μl each of Opti-MEM-I medium (Invitrogen) was dispensed in each tube. Next, 1 μg of the expression vector was charged in one tube and in another tube, 6 μl of Lipofectamine reagent was charged, which were mixed together. The mixture was settled for 20 minutes at room temperature. To the solution, 800 μl of Opti-MEM-I medium was added and the resulting solution mixture for transfection was added to CHO-K1 cells, which had been previously washed with Opti-MEM-I medium. Then, the cells were incubated in a CO2 incubator for 6 hours. After the incubation, the cells were rinsed with PBS (Invitrogen), then scraped using 0.05% trypsin-EDTA solution (Invitrogen) and recovered by centrifugal operation. The cells obtained were counted and diluted to 5×10^4 cells per 200 μl of the medium. The dilution was dispensed onto a Black walled 96-well plate (Costar) in 200 μl each per well, followed by incubation overnight in a CO2 incubator. Various test samples were added to the CHO-K1 cells in which the receptor was transiently expressed by the transfection operation described above, whereby changes in the intracellular calcium ion level were determined using FLIPR (Molecular Device). In order to determine the changes in the intracellular calcium ion level on FLIPR, the cells were pre-treated by the following procedures. First, for the purpose of adding a fluorescent dye Fluo-3 AM (DOJIN) to the cells or washing the cells immediately before the FLIPR assay, an assay buffer was prepared. A solution obtained by adding 20 ml of 1M HEPES (pH 7.4) (DOJIN) to 1000 ml of HBSS (Invitrogen) was prepared (hereinafter HBSS/HEPES solution), to which 10 ml of a solution mixture obtained by dissolving 710 mg of Probenecid (Sigma) in 5 ml of 1N NaOH and further adding 5 ml of HBSS/HEPES solution was added. The resulting solution was used as the assay buffer. Next, 50 μg of Fluo-3AM was dissolved in 21 μl of DMSO (DOJIN) and an equal volume of 20% Pulronic acid (Molecular Probes) was added to and mixed with the solution. The mixture was then added to 10.6 ml of the assay buffer supplemented with 105 μl of fetal calf serum to prepare a fluorescent dye solution. The medium for the transfection-treated CHO-K1 cells was removed. Immediately thereafter, the fluorescent dye solution was dispensed in 100 μl each/well and the cells were incubated in a CO2 incubator for an hour so that the fluorescent dye was taken up into the cells. The cells after the incubation was washed with the assay buffer described above and set on FLIPR. A test sample added to the receptor-expressed CHO-K1 cells was prepared using the assay buffer and set on FLIPR at the same time. After various test samples were added thereto.
Following the pre-treatment above, changes in intracellular calcium level after addition of various test samples were measured on FLIPR.
Background: Calcium flux is commonly read through the fluorescence of an indicator in the cells.

The target of the next assay is T2, Rat GPR40 (Rattus norvegicus, UniProt Q8K3T4).
T2 construct: expressed in transfected cells
T2 sequence (Q8K3T4 whole entry): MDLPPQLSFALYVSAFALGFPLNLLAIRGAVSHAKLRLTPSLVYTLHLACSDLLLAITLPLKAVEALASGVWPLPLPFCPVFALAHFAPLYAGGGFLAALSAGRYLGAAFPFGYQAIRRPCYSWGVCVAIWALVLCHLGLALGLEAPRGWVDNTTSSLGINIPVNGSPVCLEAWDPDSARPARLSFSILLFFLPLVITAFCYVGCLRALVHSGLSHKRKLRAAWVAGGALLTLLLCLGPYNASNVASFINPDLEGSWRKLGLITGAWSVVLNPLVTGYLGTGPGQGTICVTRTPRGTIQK
Kind of assay: EC50 by FLIPR calcium assay in CHO cells stably expressing rat GPR40. As for the experimental part: (§1) For determination of EC50 values, the CHO cell lines in which human-, mouse- and rat-derived GPR40 was stably expressed were used. Unless otherwise indicated, these CHO cell lines were incubated in α-MEM medium (Invitrogen) supplemented with 10% fetal calf serum (Invitrogen).
(§2) On the day before assay, the cells incubated to almost confluent stage were rinsed with PBS (Invitrogen), then scraped in 0.05% trypsin-EDTA solution (Invitrogen) and recovered by centrifugal operation. The number of the cells obtained was counted and diluted so as to contain 3×10^5 cells/1 mL of the medium. The dilution was dispensed in a Black welled 96-well plate (Coster) in 100 μL/well, followed by incubation overnight in a CO2 incubator. To the thus prepared CHO cells, various test samples were added and the changes in intracellular calcium level in this case were measured using FLIPR (Molecular Device). In order to determine the changes in the intracellular calcium ion level on FLIPR, the cells were pre-treated by the following procedures.
(§3) First, for the purpose of adding a fluorescent dye Fluo-3 AM (DOJIN) to the cells or washing the cells immediately before the FLIPR assay, an assay buffer was prepared. A solution obtained by adding 20 mL of 1M HEPES (pH 7.4) (DOJIN) to 1000 mL of HBSS (Invitrogen) was prepared (hereinafter HBSS/HEPES solution), to which 10 mL of a solution mixture obtained by dissolving 710 mg of Probenecid (Sigma) in 5 mL of 1N NaOH and further adding 5 mL of HBSS/HEPES solution was added. The resulting solution was used as the assay buffer. Next, 50 μg of Fluo-3AM was dissolved in 21 μL of DMSO (Wako) and an equal volume of 20% Pulronic acid (Molecular Probes) was added to and mixed with the solution. The mixture was then added to 10.6 mL of the assay buffer supplemented with 105 μL of fetal calf serum to prepare a fluorescent dye solution. […], the medium for the CHO cells again plated in a Black welled 96-well plate was removed. Immediately thereafter, the fluorescent dye solution was dispensed in 100 μL each/well and the cells were incubated in a CO2 incubator for an hour so that the fluorescent dye was taken up into the cells. The cells after the incubation was washed with the assay buffer described above and set on FLIPR. […] After the pre-treatment above was made, the changes in intracellular calcium level after the addition of various test samples were measured on FLIPR.

Another assay has as its target T3, human GPR40 (Homo sapiens, UniProt O14842).
T3 construct: The resulting fragment (ca. 1 kb) was introduced into vector pAKKO-111, which was used for transfection of CHO cells; expressed in transfected cells
Briefly: EC50 by FLIPR calcium assay in CHO cells stably expressing human GPR40. Here is the method: as §1, §2, §3

For another assay, the target named is T4, Mouse GPR40 (Mus musculus, UniProt Q76JU9).
T4 construct: expressed in transfected cells
T4 sequence (Q76JU9 whole entry): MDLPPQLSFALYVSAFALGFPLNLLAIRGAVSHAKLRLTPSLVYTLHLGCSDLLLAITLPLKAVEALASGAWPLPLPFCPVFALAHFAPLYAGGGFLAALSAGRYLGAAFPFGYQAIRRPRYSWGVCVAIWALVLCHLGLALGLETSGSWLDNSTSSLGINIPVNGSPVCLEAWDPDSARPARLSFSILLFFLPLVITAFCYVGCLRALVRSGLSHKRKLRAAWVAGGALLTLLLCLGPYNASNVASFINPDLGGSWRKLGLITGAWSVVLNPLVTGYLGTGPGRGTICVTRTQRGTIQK
Briefly: EC50 by FLIPR calcium assay in CHO cells stably expressing mouse GPR40. As for the experimental part:
as §1, §2, §3

In assay [1] the test system is mouse pancreatic β cell line MIN6. Briefly: Insulin secretion from MIN6 in KRBH buffer (immunoassay). Conditions: 22 mM glucose KRBH, 90 minutes. As for the experimental part:
The mouse pancreatic β cell line MIN6 incubated in a flask was scraped in PBS containing 2.5 mM EDTA and plated in a 96-well plate followed by incubation for 2 days. The medium used was the same as in EXAMPLE 24, namely, 4.5 g/l of glucose-containing Dulbecco's Modified Eagle Medium (DMEM, Invitrogen, Inc.) supplemented with 15% fetal calf serum (ThermoTrace, Inc.), 5.5 μM 2-mercaptethanol (Invitrogen, Inc.), 20 mM HEPES pH 7.3, 100 U/ml penicillin and 100 μg/ml streptomycin. The cells were washed twice with modified Krebs-Ringer bicarbonate buffer (KRBH, 116 mM NaCl, 4.7 mM KCl, 1.2 mM KH2PO4, 1.2 mM MgSO4, 2.5 mM CaCl2, 25 mM NaHCO3, 24 mM HEPES, pH 7.3), followed by preincubation at 37° C. in 5% CO2 for 30 minutes. The fatty acid diluted/prepared using the aforesaid KRBH buffer added with 22 mM glucose was added to the cells after the preincubation, followed by incubation under the conditions of 37° C. in 5% CO2 for 90 minutes. After the incubation, the supernatant of the cells was recovered and stored in a frozen state. The insulin content in the supernatant was assayed using an insulin immunoassay kit commercially available (Amersham Pharmacia, Inc.).
Based on the method of EXAMPLE 25, effects of glucose level when added with fatty acids were examined. The level of glucose, which was added to KRBH upon the addition of fatty acids, was varied to 0, 5.5, 11 and 22 mM to study the effects.
The insulin secretion enhancing activity in the m40i103-introduced MIN6 cells using HVJ Envelope VECTOR KIT GenomONE based on the method of EXAMPLE 18 was examined. The insulin secretion enhancing activity by fatty acids was examined according to the method of EXAMPLE 25.
Based on the procedures of EXAMPLE 25, an essential prerequisite of Ca^2+ ions in the extracellular fluid was examined. In preincubation and incubation with a sample, Ca^2+ ions were removed and 0.1 mM EGTA, which was a reagent for chelating Ca^2+ ions, was further added, and then the insulin secretion enhancing activity by fatty acids was examined in this case.
Based on the method of EXAMPLE 25, effects of Ca^2+ channel blocker (Nifedipine) and MAP kinase inhibitor (PD98059) were examined. In preincubation and incubation with a sample, the insulin secretion enhancing activity by fatty acids was examined when Nifedipine (10 μM) or PD98059 (50 μM) was added.
It is known that fatty acids have the property of binding to albumin. Based on the method of EXAMPLE 25, effects were examined when bovine serum albumin (BSA) was present. In preincubation and incubation with a sample, the insulin secretion activity by fatty acids was examined when 0.1% BSA was added to the buffer.

Setting [2] is: intracellular calcium, FLIPR, stable CHO line.
The mark [3] stands for this setting: intracellular calcium, FLIPR, stable CHO line, read-out: EC50 Rat GPR40.
The mark [4] stands for this setting: intracellular calcium, FLIPR, stable CHO line, read-out: EC50 Human GPR40.
The mark [5] stands for this setting: intracellular calcium, FLIPR, stable CHO line, read-out: EC50 Mouse GPR40.

T3 sequence (O14842 whole entry, the tested form may be a part): as the sequence (O14842 whole entry, the tested form may be a part) above

On to `CCCCCCCCC#CCC#CCC#CCCCC(=O)O` [5.8.11-eicosatriynoic acid], for which the “response (increase in intracellular calcium level) of GPR40-expressing CHO-K1 cells” value on human-derived GPR40 is listed as “specifically responsive”.
On the same count and under the same terms, the result for `CCCCCC#CCC#CCC#CCC#CCCCC(=O)O` [5.8.11.14-eicosatetraynoic acid] reads “specifically responsive”.
For `CC(=O)O` [Acetic acid (C2), Acetic acid], the “EC50 Rat GPR40” value on Rat GPR40 (setting [2]) is “inactive”. Moreover, the “EC50 Human GPR40” value on human GPR40 (setting [2]) was “inactive”. Further, at Mouse GPR40 (setting [2]), the “EC50 Mouse GPR40” value is “inactive”.
For the molecule `CCCCCCCCCC(=O)O` [Capric acid (C10), Capric acid], the EC50 on Rat GPR40 (setting [3]) was above 100 µM; at human GPR40 (setting [4]) it was 43 ± 2.2 µM; on Mouse GPR40 (setting [5]), above 100 µM.
On to `CCCCCC(=O)O` [Caproic acid (C6), Caproic acid], for which the EC50 on Rat GPR40 (setting [3]) is above 300 µM. The “EC50 Human GPR40” value at human GPR40 (setting [2]) is “inactive”. Besides, on Mouse GPR40 (setting [2]), the “EC50 Mouse GPR40” value is “inactive”.
Regarding `CCCCCCCC(=O)O` [Caprylic acid (C8), Caprylic acid], the EC50 on Rat GPR40 (setting [3]) and at human GPR40 (setting [4]) was above 300 µM throughout. Moreover, the “EC50 Mouse GPR40” value on Mouse GPR40 (setting [2]) is “inactive”.
Regarding `CC/C=C\C/C=C\C/C=C\C/C=C\C/C=C\CCCC(=O)O` [Eicosapentaenoic acid (C20:5), Eicosapentaenoic acid], the EC50 was found to be 9.8 ± 0.6 µM at Rat GPR40 (setting [3]), 2.3 ± 0.4 µM at human GPR40 (setting [4]) and 4.9 ± 0.8 µM on Mouse GPR40 (setting [5]).
Consider `CCCCCCCC/C=C/CCCCCCCC(=O)O` [Elaidic acid (C18:1), Elaidic acid], for which the EC50 was found to be 11 ± 1.5 µM at Rat GPR40 (setting [3]), 4.7 ± 0.4 µM on human GPR40 (setting [4]) and 6.5 ± 1.5 µM on Mouse GPR40 (setting [5]).
On to `CCCCCCCCCCCC(=O)O` [Lauric acid (C12), Lauric acid], for which the EC50 was determined as 13 ± 3.3 µM at Rat GPR40 (setting [3]), 5.7 ± 1.4 µM at human GPR40 (setting [4]) and 5.6 ± 1.6 µM on Mouse GPR40 (setting [5]). On human-derived GPR40, the “response (increase in intracellular calcium level) of GPR40-expressing CHO-K1 cells” value is listed as “specifically responsive”.
Consider `CCCCCCCCCCCCCC(=O)O` [Myristic acid (C14), Myristic acid], for which, on Mouse GPR40 (setting [5]), the EC50 was 6 ± 0.8 µM.
In the case of `CCCCCCCCCCCCCCCCCC(=O)O` [Stearic acid (C18), Stearic acid], the EC50 at Rat GPR40 (setting [3]), at human GPR40 (setting [4]) and on Mouse GPR40 (setting [5]) was above 300 µM each time.
As to `CCCCC/C=C\C/C=C\C/C=C\C/C=C\CCCCCC(=O)O` [adrenic acid], the “response (increase in intracellular calcium level) of GPR40-expressing CHO-K1 cells” value on human-derived GPR40 was “specifically responsive”.
Same read-out and setting: the result for `CC(C)=CCCC(C)=CCCC(C)=CC(=O)O` [farnesoic acid] reads “specifically responsive”.
On to `CC/C=C\C/C=C\C/C=C\CCCCCCCC(=O)O` [α-Linolenic acid (C18:3), α-Linolenic acid], for which the figures for the EC50 at Rat GPR40, at human GPR40 and at Mouse GPR40 were 4 ± 0.7 µM, 2 ± 0.3 µM and 3.6 ± 0.3 µM, respectively. Besides, in assay [1], the “insulin secretion enhancing activity” value is recorded as “significantly noted”.
For docosatrienoic acid, the “response (increase in intracellular calcium level) of GPR40-expressing CHO-K1 cells” value at human-derived GPR40 is on record as “specifically responsive”.
Turning to eicosadienoic acid, at human-derived GPR40, the “response (increase in intracellular calcium level) of GPR40-expressing CHO-K1 cells” value is on record as “specifically responsive”.
Consider eicosatrienoic acid, for which the “response (increase in intracellular calcium level) of GPR40-expressing CHO-K1 cells” value on human-derived GPR40 is listed as “specifically responsive”.
